Test results reported in patent US20150225404A1, “PYRIDINE DERIVATIVE AND MEDICINE” (NIPPON SHINYAKU CO., LTD., priority 2012, published 2015).
pIC50: −log10 of the molar value. Counter-ions that a name gives are not always drawn. Like-named read-outs stand apart in the source and are kept apart here.

Tests used:
human mGluR5 = target: T1, human mGluR5 (Homo sapiens, UniProt P41594); assay: Experiment for receptor function of mGluR5 (Ca2+-dependent fluorescence, FLIPR, CHO-K1 cells stably expressing human mGluR5); type: cell-based; settings: L-glutamic acid 10 μM, Fluo-4 fluorescence
T1 construct: expressed in transfected cells
T1 sequence (P41594 21-1212): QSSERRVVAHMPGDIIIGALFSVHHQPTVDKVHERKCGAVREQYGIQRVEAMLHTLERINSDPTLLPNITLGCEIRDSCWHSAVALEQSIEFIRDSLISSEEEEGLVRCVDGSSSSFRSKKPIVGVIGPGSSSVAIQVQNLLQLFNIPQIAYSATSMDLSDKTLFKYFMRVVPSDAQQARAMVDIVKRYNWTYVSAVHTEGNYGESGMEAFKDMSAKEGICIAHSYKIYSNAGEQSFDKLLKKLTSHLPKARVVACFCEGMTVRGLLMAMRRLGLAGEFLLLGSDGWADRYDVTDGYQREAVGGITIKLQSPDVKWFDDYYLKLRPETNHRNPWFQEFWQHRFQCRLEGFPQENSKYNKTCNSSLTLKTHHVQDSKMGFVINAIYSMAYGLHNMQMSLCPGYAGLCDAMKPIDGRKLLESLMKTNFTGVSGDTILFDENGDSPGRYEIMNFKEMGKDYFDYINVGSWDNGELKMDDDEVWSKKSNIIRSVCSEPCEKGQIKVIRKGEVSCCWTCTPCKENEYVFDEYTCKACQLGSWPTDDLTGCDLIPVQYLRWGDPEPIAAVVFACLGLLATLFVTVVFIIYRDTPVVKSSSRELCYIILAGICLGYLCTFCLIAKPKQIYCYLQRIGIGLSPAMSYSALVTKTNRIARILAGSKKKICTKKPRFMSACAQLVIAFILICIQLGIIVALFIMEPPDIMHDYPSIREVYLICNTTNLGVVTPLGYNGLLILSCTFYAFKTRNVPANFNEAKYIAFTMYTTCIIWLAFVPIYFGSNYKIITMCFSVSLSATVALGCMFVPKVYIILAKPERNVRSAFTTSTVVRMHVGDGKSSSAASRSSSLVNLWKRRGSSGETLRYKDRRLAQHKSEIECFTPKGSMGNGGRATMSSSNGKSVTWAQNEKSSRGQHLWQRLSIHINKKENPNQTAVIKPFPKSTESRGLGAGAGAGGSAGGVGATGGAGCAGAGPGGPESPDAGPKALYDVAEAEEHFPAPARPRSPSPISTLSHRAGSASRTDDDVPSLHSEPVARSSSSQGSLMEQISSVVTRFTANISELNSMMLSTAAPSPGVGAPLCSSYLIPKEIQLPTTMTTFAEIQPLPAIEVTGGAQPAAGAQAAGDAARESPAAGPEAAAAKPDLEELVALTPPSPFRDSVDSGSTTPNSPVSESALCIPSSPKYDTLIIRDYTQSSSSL
How it was run: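 Fluo-4-loaded CHO-K1 cells pre-incubated 2 min with test substance, then stimulated with L-glutamic acid (final 10 μM) in HBSS, pH 7.4. FLIPR Ca2+ fluorescence normalized to glutamate alone (100%) and glutamate with 10 μM MPEP (0%); IC50 estimated by logistic fit.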

male Slc:ICR mice = assay: Action against pain-related behavior and micturition cycle in mice with cyclophosphamide (CP)-induced acute cystitis; type: in vivo; settings: Mus musculus, iv, 0.25 h, CP 300 mg/kg i.p., 15 minutes observation; for inhibition in vivo at 3 mg/kg: test substance 3 mg/kg intravenously 3 hours after CP; for inhibition in vivo at 1 mg/kg: test substance 1 mg/kg intravenously 3 hours after CP
Experimental: An action of a test substance against visceral pain and frequent urination associated with cystitis, which was induced by intraperitoneal administration (20 mL/kg) of CP (300 mg/kg) to 4 to 5-week-old male Slc:ICR mice (available from Japan SLC, Inc.), was investigated. This experiment was performed according to a method described in European Journal of Pharmacology, 676 (2012), pp. 75-80.
Three hours after the administration of CP, a test substance (1 mg/kg or 3 mg/kg) was intravenously administered, and observation by visual inspection and video recording were performed for 15 minutes immediately thereafter. In the observation by visual inspection, four pain-related behaviors (eye opening, rounded back, leg dragging, and behavior during urination) were scored, each rated on a scale of 0-10, according to the following criteria.
Eye opening (normal: 0 point, sometimes closed or half-open eyes: 5 points, completely closed: 10 points)
Rounded back (normal: 0 point, sometimes crouched: 5 points, crouched at almost all times: 10 points)
Leg dragging (normal: 0 point, leg dragging: 10 points)
Behavior during urination (normal: 0 point, shaking hip in micturition: 10 points)
In addition, the video was played back, and the frequency of licking behavior around the abdomen as a pain-related behavior was scored, rated on a scale of 0-10, according to the following criteria.
Licking behavior around the abdomen (0 to 3 times: 0 point, 4 times to 10 times: 5 points, 11 times or more: 10 points)
Furthermore, the video was played back, and the frequency of urination (urination marks) on a filter paper was counted and taken as an index for micturition cycle.
An average value of the pain-related behavior score of each group (total score of the five items: 50 points at maximum) and an average value of the frequency of urination (urination marks) on the filter paper were determined.
The strength of an analgesic action of the test substance against the CP-induced visceral pain was evaluated in terms of percent inhibition (%) of pain-related behavior score which is calculated as {(A−B)/A×100}, wherein A is an average value of the pain-related behavior score of a medium-administered group, and B is an average value of the pain-related behavior score of a test substance-administered group.
In addition, the strength of a frequent urination inhibitory action of the test substance against the CP-induced frequent urination was evaluated in terms of percent inhibition (%) of the frequency of urination which is calculated as {(C−D)/C×100}, wherein C is an average value of the frequency of urination of a medium-administered group, and D is an average value of the frequency of urination of a test substance-administered group.

[1] = read-out: Percent inhibition of pain-related behavior score (%)
[2] = read-out: Percent inhibition of the frequency of urination (%)

SMILES | pIC50 (human mGluR5) | inhibition in vivo at 3 mg/kg (male Slc:ICR mice; [1]) | inhibition in vivo at 3 mg/kg (male Slc:ICR mice; [2]) | further results
Cc1ncc(-c2cc(OCc3ccccn3)nc3c2CCC3)cn1 [Example 36, 4-(2-Methylpyrimidin-5-yl)-2-(pyridin-2-ylmethoxy)-6,7-dihydro-5H-cyclopenta[b]pyridine hydrochloride] | 7.15 | 40.4% | 31.3% | 
Cc1ncc(-c2cc(OCc3nc(F)ccc3F)nc3c2CCC3)cn1 [Example 43, 2-[(3,6-Difluoropyridin-2-yl)methoxy]-4-(2-methylpyrimidin-5-yl)-6,7-dihydro-5H-cyclopenta[b]pyridine] |  | 31% | 41.9% | 
Cc1cccc(COc2cc(-c3cnc(C)nc3)c3c(n2)CCC3)n1 [Example 45, 2-[(6-Methylpyridin-2-yl)methoxy]-4-(2-methylpyrimidin-5-yl)-6,7-dihydro-5H-cyclopenta[b]pyridine hydrochloride] |  | 34.1% | 33.8% | 
Cc1ncc(-c2cc(OCc3cccc(C#N)n3)nc3c2CCC3)cn1 [Example 46, 6-({[4-(2-Methylpyrimidin-5-yl)-6,7-dihydro-5H-cyclopenta[b]pyridin-2-yl]oxy}methyl)pyridine-2-carbonitrile] | 6.68 |  |  | inhibition in vivo at 1 mg/kg (male Slc:ICR mice; [1]): 22%; inhibition in vivo at 1 mg/kg (male Slc:ICR mice; [2]): 31.5%
c1ccc(COc2cc(-c3cncnc3)c3c(n2)CCCC3)nc1 [Example 143, 2-(Pyridin-2-ylmethoxy)-4-(pyrimidin-5-yl)-5,6,7,8-tetrahydroquinoline hydrochloride] | 7.42 | 52.2% | 47.7% | 
Fc1cccnc1COc1cc(-c2cncnc2)c2c(n1)CCCC2 [Example 147, 2-[(3-Fluoropyridin-2-yl)methoxy]-4-(pyrimidin-5-yl)-5,6,7,8-tetrahydroquinoline] | 7.71 | 38.8% | 21.1% | 
Fc1ccc(F)c(COc2cc(-c3cncnc3)c3c(n2)CCCC3)n1 [Example 148, 2-[(3,6-Difluoropyridin-2-yl)methoxy]-4-(pyrimidin-5-yl)-5,6,7,8-tetrahydroquinoline] | 7.66 | 45.7% | 31.5% | 
Cc1cccc(COc2cc(-c3cnc(C)nc3)c3c(n2)CCCC3)n1 [Example 182, 2-[(6-Methylpyridin-2-yl)methoxy]-4-(2-methylpyrimidin-5-yl)-5,6,7,8-tetrahydroquinoline hydrochloride] | 6.91 | 26% | 43.2% | 
Cc1ncc(-c2cc(OCc3cccc(C#N)n3)nc3c2CCCC3)cn1 [Example 183, 6-({[4-(2-Methylpyrimidin-5-yl)-5,6,7,8-tetrahydroquinolin-2-yl]oxy}methyl)pyridine-2-carbonitrile] | 6.83 |  |  | inhibition in vivo at 1 mg/kg (male Slc:ICR mice; [1]): 37%; inhibition in vivo at 1 mg/kg (male Slc:ICR mice; [2]): 22.7%
OCc1cncc(-c2cc(OCc3ncccc3F)nc3c2CCCC3)n1 [Example 217, (6-{2-[(3-Fluoropyridin-2-yl)methoxy]-5,6,7,8-tetrahydroquinolin-4-yl}pyrazin-2-yl)methanol] |  | 38.3% | 40.4% | 
Fc1ccc(F)c(COc2cc(-c3cncnc3)c3c(n2)CCC3)n1 [Example 255, 2-[(3,6-Difluoropyridin-2-yl)methoxy]-4-(pyrimidin-5-yl)-6,7-dihydro-5H-cyclopenta[b]pyridine] |  | 31% | 26.4% | 
Cc1ncc(-c2cc(OCc3cccc(F)c3)nc3c2CCC3)cn1 [Example 266, 2-[(3-Fluorobenzyl)oxy]-4-(2-methylpyrimidin-5-yl)-6,7-dihydro-5H-cyclopenta[b]pyridine] | 7.15 |  |  | 
Cc1ncc(-c2cc(OCc3nc(C#N)co3)nc3c2CCC3)cn1 [Example 267, 2-({[4-(2-Methylpyrimidin-5-yl)-6,7-dihydro-5H-cyclopenta[b]pyridin-2-yl]oxy}methyl)-1,3-oxazole-4-carbonitrile] | 7.26 |  |  | 
OCc1cncc(-c2cc(OCc3ccc(F)cn3)nc3c2CCC3)n1 [Example 269, (6-{2-[(5-Fluoropyridin-2-yl)methoxy]-6,7-dihydro-5H-cyclopenta[b]pyridin-4-yl}pyrazin-2-yl)methanol] | 7.17 |  |  | 
N#Cc1cccc(COc2cc(-c3cncc(CO)n3)c3c(n2)CCC3)c1 [Example 270, 3-[({4-[6-(Hydroxymethyl)pyrazin-2-yl]-6,7-dihydro-5H-cyclopenta[b]pyridin-2-yl}oxy)methyl]benzonitrile] | 6.73 |  |  | 
c1ccc(COc2cc(-c3cccnn3)c3c(n2)CCC3)nc1 [Example 271, 4-(Pyridazin-3-yl)-2-(pyridin-2-ylmethoxy)-6,7-dihydro-5H-cyclopenta[b]pyridine] | 7.04 |  |  | 
N#Cc1ccc(COc2cc(-c3cccnn3)c3c(n2)CCC3)cc1 [Example 273, 4-({[4-(Pyridazin-3-yl)-6,7-dihydro-5H-cyclopenta[b]pyridin-2-yl]oxy}methyl)benzonitrile] | 7.21 |  |  | 
Cn1nccc1-c1cc(OCc2ccc(C#N)cn2)nc2c1CCC2 [Example 274, 6-({[4-(1-Methyl-1H-pyrazol-5-yl)-6,7-dihydro-5H-cyclopenta[b]pyridin-2-yl]oxy}methyl)pyridine-3-carbo nitrile] | 7.21 |  |  | 
N#Cc1ccc(COc2cc(-c3cccnn3)c3c(n2)CCC3)nc1 [Example 275, 6-({[4-(Pyridazin-3-yl)-6,7-dihydro-5H-cyclopenta[b]pyridin-2-yl]oxy}methyl)pyridine-3-carbonitrile] | 7.09 |  |  | 
N#Cc1ccc(COc2cc(-c3cncc(CO)c3)c3c(n2)CCCC3)nc1 [Example 276, 6-[({4-[5-(Hydroxymethyl)pyridin-3-yl]-5,6,7,8-tetrahydroquinolin-2-yl}oxy)methyl]pyridine-3-carbonitrile] | 7.55 |  |  | 
N#Cc1ccc(COc2cc(-c3cncnc3)c3c(n2)CCCC3)cc1 [Example 278, 4-({[4-(Pyrimidin-5-yl)-5,6,7,8-tetrahydroquinolin-2-yl]oxy}methyl)benzonitrile] | 7.06 |  |  | 
N#Cc1cccc(COc2cc(-c3cncnc3)c3c(n2)CCCC3)c1 [Example 279, 3-({[4-(Pyrimidin-5-yl)-5,6,7,8-tetrahydroquinolin-2-yl]oxy}methyl)benzonitrile] | 6.97 |  |  | 
Fc1ccc(COc2cc(-c3cncnc3)c3c(n2)CCCC3)cc1 [Example 280, 2-[(4-Fluorobenzyl)oxy]-4-(pyrimidin-5-yl)-5,6,7,8-tetrahydroquinoline] | 7.04 |  |  | 
Fc1cccc(COc2cc(-c3cncnc3)c3c(n2)CCCC3)c1 [Example 281, 2-[(3-Fluorobenzyl)oxy]-4-(pyrimidin-5-yl)-5,6,7,8-tetrahydroquinoline] | 7.03 |  |  | 
N#Cc1cc(COc2cc(-c3cncnc3)c3c(n2)CCCC3)ccn1 [Example 282, 4-({[4-(Pyrimidin-5-yl)-5,6,7,8-tetrahydroquinolin-2-yl]oxy}methyl)pyridine-2-carbonitrile] | 7.18 |  |  | 
Cc1cc(COc2cc(-c3cnc(C)nc3)c3c(n2)CCCC3)ccn1 [Example 286, 2-[(2-Methylpyridin-4-yl)methoxy]-4-(2-methylpyrimidin-5-yl)-5,6,7,8-tetrahydroquinoline] | 7.02 |  |  | 
Cc1ncc(-c2cc(OCc3ccnc(C#N)c3)nc3c2CCCC3)cn1 [Example 287, 4-({[4-(2-Methylpyrimidin-5-yl)-5,6,7,8-tetrahydroquinolin-2-yl]oxy}methyl)pyridine-2-carbonitrile] | 6.84 |  |  | 
N#Cc1ccc(COc2cc(-c3cncc(CO)n3)c3c(n2)CCCC3)nc1 [Example 288, 6-[({4-[6-(Hydroxymethyl)pyrazin-2-yl]-5,6,7,8-tetrahydroquinolin-2-yl}oxy)methyl]pyridine-3-carbonitrile] | 6.92 |  |  | 
